# Reference: patent publication US20100056791A1, “Pyrazolopyridine carboxamide derivative and phosphodiesterase (pde) inhibitor containing the same” (priority 2006, published 2010)
# pIC50: −log10 of the molar value.
# Key:
# [1] = molecular target: T1, PDE4B catalytic domain (PDE4Bcat) (Homo sapiens, UniProt Q07343); assay: Phosphodiesterase inhibitory activity ([3H]cAMP breakdown, recombinant PDE4Bcat); assay type: biochemical; settings: 30° C. 20 minutes, read-out: IC50(μmol/L) PDE4
# T1 construct: The cDNA of PDE4B catalytic domain (hereinafter abbreviated as Cat) was isolated from human RNA by RT-PCR; made in house; host or cells: Sf9 insect cells (baculovirus, Gateway / Bac-to-Bac)
# Source text: The cDNA of PDE4B catalytic domain (hereinafter abbreviated as Cat) was isolated from human RNA by RT-PCR. The isolated cDNA fragments were inserted into Sf9 insect cells using Gateway system (product of Invitrogen Corporation) and Bac-to-Bac (registered trademark) Baculovirus Expression system (product of Invitrogen Corporation) to express a target PDE protein. The recombinant PDE4Bcat was purified from the culture supernatants or cell extracts of Sf9 cells expressing high levels of the PDE protein by ion exchange chromatography and was used for the following experiments.
# A 4 mmol/L solution of each test compound was serially diluted four-fold with a 15% DMSO solution to prepare solutions with concentrations of 15 nmol/L to 4 mmol/L (the final concentrations used in the experiments were 1.5 nmol/L to 400 μmol/L). 10 μL of the prepared test compound solutions, [3H] cAMP diluted with a buffer solution (40 mmol/L Tris-HCl (pH: 7.4), 10 mmol/L MgCl2), and 40 μL of the recombinant human PDE protein (2×10^−6 units, 1 unit is defined as the amount of PDE that breaks down 1 μmol/L of cAMP in one minute under the conditions of a pH of 7.5 and 30° C.) were added to a 96-well plate. The mixtures were reacted at 30° C. for 20 minutes. Then, the resultant mixtures were reacted at 65° C. for 2 minutes. Subsequently, 25 μL of 1 mg/mL5′-nucleotidase (Crotalus atrox venom, product of Sigma) was added to the mixtures, and the mixtures were reacted at 30° C. for 10 minutes. After completion of the reaction, 200 μL of a solution of Dowex (300 mg/mL Dowex 1×8-400 (product of Sigma Aldrich), 33% ethanol) was added to the mixtures, and the mixtures were shaken at 4° C. for 20 minutes. Subsequently, 200 μL of MicroScint 20 (product of Packard) was added to the mixtures, and measurement was performed using a scintillation counter (Topcount, product of Packard). IC50 values were calculated using Graph Pad Prism v3.03 (product of GraphPad Software). When […], the results were represented by “+.” When 0.1 μmol/L>the IC50 value, the results were represented by “++.”
# [2] = tested on: histamine-induced bronchoconstriction; assay: Histamine-induced airway contraction reaction in guinea pigs; assay type: in vivo; settings: Cavia porcellus, iv, 0.5 min, i.v., 30 seconds after administration, read-out: Inhibition ratio; for inhibition in vivo at 0.3 mg/kg: 0.3 mg/kg administration (results in brackets); for inhibition in vivo at 0.1 mg/kg: 0.1 mg/kg administration (not in brackets)
# Procedure: Guinea pigs were anesthetized with pentobarbital (30 mg/kg, i.p.). A cannula for intravenous administration, a cannula for collecting blood and measuring blood pressure, and a tracheal cannula were inserted into the left external jugular vein, right internal carotid artery, and trachea, respectively. The guinea pigs were maintained on artificial respiration under the conditions of 60 times/min and 10 mL/kg/stroke. The airflow from the side branch of the tracheal cannula was measured by a bronchospasm transducer (Ugo-Basile) and recorded on a computer via Power Lab (ADInstruments Japan). The guinea pigs were immobilized with gallamine (10 mg/kg, i.v.), and histamine was administered at 10-minute intervals (12.5 μg/kg, i.v.). […] We examined the inhibitory action of test compounds on histamine-induced bronchoconstriction 30 seconds after compounds administration. Bronchoconstriction was recorded as the amount of airflow, and the results were represented by the ratio of the maximum value of the histamine-induced airflow 30 seconds after the administration to the maximum value of the airflow before the administration. When the inhibition ratio≧90%, the results were represented by “+++.” When 90%>the inhibition ratio≧70%, the results were represented by “++.” When 70%>the inhibition ratio≧30%, the results were represented by “+.” The results shown in brackets are for 0.3 mg/kg administration, and the other results are for 0.1 mg/kg administration.
# T1 sequence (Q07343 330-659 limits assumed): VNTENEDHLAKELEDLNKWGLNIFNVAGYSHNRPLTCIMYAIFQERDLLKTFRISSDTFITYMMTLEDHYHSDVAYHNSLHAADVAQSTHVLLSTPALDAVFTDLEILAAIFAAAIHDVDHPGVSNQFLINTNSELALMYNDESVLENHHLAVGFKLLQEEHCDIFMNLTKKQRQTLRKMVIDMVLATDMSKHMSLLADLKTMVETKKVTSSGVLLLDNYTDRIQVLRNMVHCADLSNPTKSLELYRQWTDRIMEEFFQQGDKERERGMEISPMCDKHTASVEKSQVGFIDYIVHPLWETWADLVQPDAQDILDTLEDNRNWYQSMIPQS
Structure (SMILES),pIC50 [1],inhibition in vivo at 0.3 mg/kg [2] [%],inhibition in vivo at 0.1 mg/kg [2] [%]
"CCc1cc2c(C(=O)Nc3c(Cl)c[n+]([O-])cc3Cl)ccc(OC)n2n1 [Example 11, 2-Ethyl-7-methoxypyrazolo[1,5-a]pyridine-4-carboxylic acid (3,5-dichloto-1-oxypyridin-4-yl)amide]",> 7.00,70 to 90,
"COc1ccc(C(=O)Nc2c(Cl)c[n+]([O-])cc2Cl)c2cc(C(F)(F)F)nn12 [Example 17, 7-Methoxy-2-trifluoromethylpyrazolo[1,5-a]pyridine-4-carboxylic acid (3,5-dichloro-1-oxypyridin-4-yl)amide]",> 7.00,,30 to 70
"COc1ccc(C(=O)Nc2c(Cl)cc(Cl)cc2Cl)c2cc(C(F)(F)F)nn12 [Example 18, 7-Methoxy-2-trifluoromethylpyrazolo[1,5-a]pyridine-4-carboxylic acid (2,4,6-trichlorophenyl)amide]",5.00 to 7.00,,
"COc1ccc(C(=O)Nc2c(Cl)cncc2Cl)c2cc(C3CC3)nn12 [Example 24, 2-Cyclopropyl-7-methoxypyrazolo[1,5-a]pyridine-4-carboxylic acid (3,5-dichloropyridin-4-yl)amide]",> 7.00,,≥ 90
"COc1ccc(C(=O)Nc2c(Cl)c[n+](O)cc2Cl)c2cc(C3CC3)nn12 [Example 25, 2-Cyclopropyl-7-methoxypyrazolo[1,5-a]pyridine-4-carboxylic acid (3,5-dichloro-1-oxypyridin-4-yl)amide]",> 7.00,≥ 90,
"COc1ccc(C(=O)Nc2c(Cl)cncc2Cl)c2cc(C(C)C)nn12 [Example 32, 2-Isopropyl-7-methoxypyrazolo[1,5-a]pyridine-4-carboxylic acid (3,5-dichloropyridin-4-yl)amide]",5.00 to 7.00,,70 to 90
"COc1ccc(C(=O)Nc2c(Cl)c[n+](O)cc2Cl)c2cc(C(C)C)nn12 [Example 33, 2-Isopropyl-7-methoxypyrazolo[1,5-a]pyridine-4-carboxylic acid (3,5-dichloro-1-oxypyridin-4-yl)amide]",> 7.00,,≥ 90
"COc1ccc(C(=O)Nc2c(Cl)cncc2Cl)c2ccnn12 [Example 40, 7-Methoxypyrazolo[1,5-a]pyridine-4-carboxylic acid (3,5-dichloropyridin-4-yl)amide]",> 7.00,70 to 90,
"COc1ccc(C(=O)Nc2c(Cl)c[n+]([O-])cc2Cl)c2ccnn12 [Example 41, 7-Methoxypyrazolo[1,5-a]pyridine-4-carboxylic acid (3,5-dichloro-1-oxypyridin-4-yl)amide]",> 7.00,30 to 70,
"CCc1cc2c(C(=O)Nc3c(Cl)cncc3Cl)cccn2n1 [Example 48, 2-Ethylpyrazolo[1,5-a]pyridine-4-carboxylic acid (3,5-dichloropyridin-4-yl)amide]",5.00 to 7.00,,
"COc1ccc(C(=O)Nc2c(Cl)cncc2Cl)c2cc(C(F)F)nn12 [Example 58, 2-Difluoromethyl-7-methoxy-pyrazolo[1,5-a]pyridine-4-carboxylic acid (3,5-dichloropyridin-4-yl)amide]",> 7.00,,≥ 90
"CCOc1ccc(C(=O)Nc2c(Cl)cncc2Cl)c2cc(C(F)F)nn12 [Example 59, 2-Difluoromethyl-7-ethoxypyrazolo[1,5-a]pyridine-4-carboxylic acid (3,5-dichloropyridin-4-yl)amide]",> 7.00,,
"COc1ccc(C(=O)Nc2c(Cl)c[n+](O)cc2Cl)c2cc(C#N)nn12 [Example 71, 2-Cyano-7-methoxypyrazolo[1,5-a]pyridine-4-carboxylic acid (3,5-dichloro-1-oxypyridin-4-yl)amide]",> 7.00,,
"COCc1cc2c(C(=O)Nc3c(Cl)cncc3Cl)ccc(OC)n2n1 [Example 76, 7-Methoxy-2-methoxymethylpyrazolo[1,5-a]pyridine-4-carboxylic acid (3,5-dichloropyridin-4-yl)amide]",> 7.00,,70 to 90
"COCc1cc2c(C(=O)Nc3c(Cl)c[n+](O)cc3Cl)ccc(OC)n2n1 [Example 77, 7-Methoxy-2-methoxymethylpyrazolo[1,5-a]pyridine-4-carboxylic acid (3,5-dichloro-1-oxypyridin-4-yl)amide]",> 7.00,30 to 70,
"COc1ccc(C(=O)Nc2c(Cl)cncc2Cl)c2cc(C=O)nn12 [Example 78, 2-Formyl-7-methoxypyrazolo[1,5-a]pyridine-4-carboxylic acid (3,5-dichloropyridin-4-yl)amide]",> 7.00,70 to 90,
"COc1ccc(C(=O)Nc2c(Cl)cncc2Cl)c2cc(C(C)O)nn12 (stereo not drawn) [Example 79, 2-(1-Hydroxyethyl)-7-methoxypyrazolo[1,5-a]pyridine-4-carboxyl ic acid (3,5-dichloropyridin-4-yl)amide]",> 7.00,,30 to 70
"COc1ccc(C(=O)Nc2c(Cl)cncc2Cl)c2cc(C(C)=O)nn12 [Example 80, 2-Acetyl-7-methoxypyrazolo[1,5-a]pyridine-4-carboxylic acid (3,5-dichloropyridin-4-yl)amide]",> 7.00,,30 to 70
"COc1ccc(C(=O)Nc2c(Cl)cncc2Cl)c2cc(C(=O)O)nn12 [Example 81, 4-(3,5-Dichloropyridin-4-ylcarbamoyl)-7-methoxypyrazolo[1,5-a]pyridine-2-carboxylic acid]",5.00 to 7.00,,
"COc1ccc(C(=O)Nc2c(Cl)cncc2Cl)c2cc(C=NO)nn12 [Example 82, 2-(Hydroxyiminomethy)-7-methoxypyrazolo[1,5-a]pyridine-4-carboxylic acid (3,5-dichloropyridin-4-yl)amide]",> 7.00,,70 to 90
"COc1ccc(C(=O)Nc2c(Cl)cncc2Cl)c2cc(C#N)nn12 [Example 83, 2-Cyano-7-methoxypyrazolo[1,5-a]pyridine-4-carboxylic acid (3,5-dichloropyridin-4-yl)amide]",> 7.00,,≥ 90
"CNc1ccc(C(=O)Nc2c(Cl)cncc2Cl)c2cc(C(F)(F)F)nn12 [Example 97, 7-Methylamino-2-trifluoromethylpyrazolo[1,5-a]pyridine-4-carboxylic acid (3,5-dichloropyridin-4-yl)amide]",> 7.00,,
"CC(=O)c1ccc(C(=O)Nc2c(Cl)cncc2Cl)c2cc(C(F)(F)F)nn12 [Example 108, 7-Acetyl-2-trifluoromethylpyrazolo[1,5-a]pyridine-4-carboxylic acid (3,5-dichloropyridin-4-yl)amide]",> 7.00,,
"COCc1ccc(C(=O)Nc2c(Cl)cncc2Cl)c2cc(C(F)(F)F)nn12 [Example 115, 7-Methoxymethyl-2-trifluoromethylpyrazolo[1,5-a]pyridine-4-carboxylic acid (3,5-dichloropyridin-4-yl)amide]",> 7.00,,
"COc1ccc(C(=O)Nc2c(Cl)cncc2Cl)c2c(Cl)c(C(F)(F)F)nn12 [Example 118, 3-Chloro-7-methoxy-2-trifluoromethylpyrazolo[1,5-a]pyridine-4-carboxylic acid (3,5-dichloropyridin-4-yl)amide]",> 7.00,,
"COc1ccc(C(=O)Nc2c(Cl)cncc2Cl)c2c(O)c(C(F)(F)F)nn12 [Example 119, 3-Hydroxy-7-methoxy-2-trifluoromethylpyrazolo[1,5-a]pyridine-4-carboxylic acid (3,5-dichloropyridin-4-yl)amide]",5.00 to 7.00,,
